# Reference: US6413971B1, “Fused bicyclic pyrimidine derivatives” (Pfizer Inc, priority 1996, dated 2002)
# Counter-ions that a name gives are not always drawn.
row,Structure (SMILES),melting point
1,"Clc1ccc2c(c1)N(c1ncnc3cnccc13)CC2 [Example 5, 4-(6-Chloro-2,3dihydro-indol-1-yl)-pyrido[3,4-d]pyrimidine]",194 to 196 °C
2,"Oc1cc2ncnc(N3CCc4ccc(Cl)cc43)c2[nH]1 [Example 10, 4-(6Chloro-2,3dihydro-indol-1-yl)-5H-pyrrolo[3,2-d]pyrimidin-6-ol]",250 °C (dec.)
3,"C#Cc1cccc(Nc2ncnc3c2ccn3CCOCCOC)c1 [Example 13, (3-Ethynyl-phenyl)-{7-[2-(2-methoxy-ethoxy)-ethyl]-7H-pyrrolo[2,3-d]pyrimidin4-yl}amine]",240 to 241 °C
4,Cc1cc2c(N3CCc4ccc(Br)c(C)c43)ncnc2cn1.Cl,212 to 229 °C
5,Cc1cc2c(N3CCc4cc(F)c(Br)cc43)ncnc2cn1.Cl,262 to 264 °C
6,Cc1cc2c(N3CCc4c(Br)ccc(C)c43)ncnc2cn1.Cl,232 to 244 °C

# More lines, now with the values ahead:
row,melting point,Structure (SMILES)
1,233 to 235 °C,"C#Cc1cccc(Nc2ncnc3cnccc23)c1 (as salt: hydrochloride) [Example 24, (3-Ethynyl-phenyl)-pyrido[3,4-d]pyrimidin-4-yl-amine]"
2,230 to 232 °C,"C#Cc1cccc(Nc2ncnc3[nH]cc(-c4cccs4)c23)c1 [Example 27, (3-Ethynyl-phenyl)-(5-thiophen-2-yl-7H-pyrrolo[2,3-d]pyrimidin4-yl]-amine]"
3,232 to 234 °C,"Cc1cc2c(N3CCc4ccc(Cl)cc43)ncnc2cn1 [Example 16, 4-(6Chloro-2,3-dihydro-indol-1-yl)-6methyl-pyrido[3,4-d]pyrimidine]"
4,280 to 282 °C,"c1cc2c(Nc3ccc4sccc4c3)ncnc2cn1 (as salt: hydrochloride) [Example 25, Benzo[b]thiophen-5-yl-pyrido[3,4-d]pyrimidin-4-yl-amine]"
